The target of this test is T1, CHK1 (Homo sapiens, UniProt O14757).
T1 construct: His; purchased Invitrogen
T1 sequence (O14757 1-476): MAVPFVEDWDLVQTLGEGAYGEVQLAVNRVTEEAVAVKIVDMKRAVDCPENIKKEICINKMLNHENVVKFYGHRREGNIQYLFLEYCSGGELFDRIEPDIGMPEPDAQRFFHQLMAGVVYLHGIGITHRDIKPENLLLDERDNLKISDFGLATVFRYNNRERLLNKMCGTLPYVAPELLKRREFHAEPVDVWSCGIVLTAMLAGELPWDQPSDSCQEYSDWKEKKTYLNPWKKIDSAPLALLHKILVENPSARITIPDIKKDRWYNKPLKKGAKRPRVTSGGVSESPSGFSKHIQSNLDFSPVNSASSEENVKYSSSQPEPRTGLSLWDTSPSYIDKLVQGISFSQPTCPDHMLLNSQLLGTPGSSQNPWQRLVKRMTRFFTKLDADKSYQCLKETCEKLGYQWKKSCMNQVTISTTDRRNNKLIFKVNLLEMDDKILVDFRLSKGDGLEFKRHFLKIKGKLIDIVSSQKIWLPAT
The test is described as follows: CHK1 Enzyme Assay (phosphorylation of Chktide peptide, 33P-ATP filter assay). It counts as biochemical. Particulars: 12.5 nM His-CHK1, 0.01 mM ATP, 40 minutes at 30° C.; read-out: CHK1 Enzyme Activity (IC50 range). On the procedure: Assays for the CHK1 kinase activity were carried out by monitoring the phosphorylation of a synthetic peptide Chktide with the amino acid sequence, […]. The assay mixture containing the inhibitor and CHK1 enzyme was mixed together in a microtiter plate in a final volume of 50 μl and incubated for 40 minutes at 30° C.
The assay mixture contained 0.01 mM unlabeled ATP, 0.5 μCi ^33P-γ-ATP, 14.8 μM Chktide, 0.1 mg/mL BSA, 50 mM Hepes-NaOH pH 7.5 and 12.5 nM His-CHK1 (Invitrogen) enzyme. The reaction was stopped by adding 50 μL of 50 mM phosphoric acid. 90 μL of the mixture was transferred to a pre-wetted 96-well multi-screen MAPHNOB filtration plate (Millipore) and filtered on a vacuum manifold. The filter plate was washed with 3 successive additions of 200 μl 50 mM phosphoric acid and then with 100 μL methanol. The filtration plate was dried for 10 min at 65° C., scintillant added and phosphorylated peptide quantified in a scintillation counter (Trilux, PerkinElmer).

As to `O=C(Nc1cnn(Cc2ccccc2)c1)c1c[nH]c(=O)c(-c2cc3ccccc3[nH]2)c1` [Example 1, 5-(1H-Indol-2-yl)-6-oxo-1,6-dihydro-pyridine-3-carboxylic acid (1-benzyl-1H-pyrazol-4-yl)-amide], the IC50 is below 100 nM. Regarding `COc1ccc(Cn2cc(NC(=O)c3c[nH]c(=O)c(-c4cc5ccccc5[nH]4)c3)cn2)cc1` [Example 2, 5-(1H-Indol-2-yl)-6-oxo-1,6-dihydro-pyridine-3-carboxylic acid [1-(4-methoxy-benzyl)-1H-pyrazol-4-yl]-amide], the IC50 lay within 100 to 500 nM. In the case of `Cc1ccccc1Cn1cc(NC(=O)c2c[nH]c(=O)c(-c3cc4ccccc4[nH]3)c2)cn1` [Example 3, 5-(1H-Indol-2-yl)-6-oxo-1,6-dihydro-pyridine-3-carboxylic acid [1-(2-methyl-benzyl)-1H-pyrazol-4-yl]-amide], the IC50 lay within 500 to 1500 nM. Regarding `Cc1cccc(Cn2cc(NC(=O)c3c[nH]c(=O)c(-c4cc5ccccc5[nH]4)c3)cn2)c1` [Example 4, 5-(1H-Indol-2-yl)-6-oxo-1,6-dihydro-pyridine-3-carboxylic acid[1-(3-methyl-benzyl)-1H-pyrazol-4-yl]-amide], the IC50 was below 100 nM. `Cc1ccc(Cn2cc(NC(=O)c3c[nH]c(=O)c(-c4cc5ccccc5[nH]4)c3)cn2)cc1` [Example 5, 5-(1H-Indol-2-yl)-6-oxo-1,6-dihydro-pyridine-3-carboxylic acid[1-(4-methyl-benzyl)-1H-pyrazol-4-yl]-amide]: the IC50 fell in the range of 100 to 500 nM. In the case of `N#Cc1cccc(Cn2cc(NC(=O)c3c[nH]c(=O)c(-c4cc5ccccc5[nH]4)c3)cn2)c1` [Example 6, 5-(1H-Indol-2-yl)-6-oxo-1,6-dihydro-pyridine-3-carboxylic acid [1-(3-cyano-benzyl)-1H-pyrazol-4-yl]-amide] it was 100 to 500 nM; in that of `N#Cc1ccc(Cn2cc(NC(=O)c3c[nH]c(=O)c(-c4cc5ccccc5[nH]4)c3)cn2)cc1` [Example 7, 5-(1H-Indol-2-yl)-6-oxo-1,6-dihydro-pyridine-3-carboxylic acid [1-(4-cyano-benzyl)-1H-pyrazol-4-yl]-amide], 500 to 1500 nM; in that of `O=C(Nc1cnn(Cc2ccccc2F)c1)c1c[nH]c(=O)c(-c2cc3ccccc3[nH]2)c1` [Example 8, 5-(1H-Indol-2-yl)-6-oxo-1,6-dihydro-pyridine-3-carboxylic acid [1-(2-fluoro-benzyl)-1H-pyrazol-4-yl]-amide], 100 to 500 nM. `O=C(Nc1cnn(Cc2cccc(F)c2)c1)c1c[nH]c(=O)c(-c2cc3ccccc3[nH]2)c1` [Example 9, 5-(1H-Indol-2-yl)-6-oxo-1,6-dihydro-pyridine-3-carboxylic acid [1-(3-fluoro-benzyl)-1H-pyrazol-4-yl]-amide]: the IC50 was below 100 nM. For the compound `O=C(Nc1cnn(Cc2ccc(F)cc2)c1)c1c[nH]c(=O)c(-c2cc3ccccc3[nH]2)c1` [Example 10, 5-(1H-Indol-2-yl)-6-oxo-1,6-dihydro-pyridine-3-carboxylic acid [1-(4-fluoro-benzyl)-1H-pyrazol-4-yl]-amide], the IC50 was below 100 nM. `O=C(Nc1cnn(Cc2ccc(F)c(F)c2)c1)c1c[nH]c(=O)c(-c2cc3ccccc3[nH]2)c1` [Example 11, 5-(1H-Indol-2-yl)-6-oxo-1,6-dihydro-pyridine-3-carboxylic acid [1-(3,4-difluoro-benzyl)-1H-pyrazol-4-yl]-amide]: the IC50 was below 100 nM. Regarding `O=C(Nc1cnn(Cc2ccc(Cl)cc2)c1)c1c[nH]c(=O)c(-c2cc3ccccc3[nH]2)c1` [Example 12, 5-(1H-Indol-2-yl)-6-oxo-1,6-dihydro-pyridine-3-carboxylic acid [1-(4-chloro-benzyl)-1H-pyrazol-4-yl]-amide], the IC50 fell in the range of 100 to 500 nM. For the compound `O=C(Nc1cnn(Cc2cc(F)cc(F)c2)c1)c1c[nH]c(=O)c(-c2cc3ccccc3[nH]2)c1` [Example 13, 5-(1H-Indol-2-yl)-6-oxo-1,6-dihydro-pyridine-3-carboxylic acid [1-(3,5-difluoro-benzyl)-1H-pyrazol-4-yl]-amide], the IC50 is below 100 nM.

Take `Cc1ccc(Cn2cc(NC(=O)c3c[nH]c(=O)c(-c4cc5ccccc5[nH]4)c3)cn2)cc1F` [Example 14, 5-(1H-Indol-2-yl)-6-oxo-1,6-dihydro-pyridine-3-carboxylic acid [1-(3-fluoro-4-methyl-benzyl)-1H-pyrazol-4-yl]-amide]: the 50% inhibitory concentration (IC50) lay in the range of 100 to 500 nM. On to `CN1CCN(C(=O)c2ccc3[nH]c(-c4cc(C(=O)Nc5cnn(Cc6ccccc6)c5)c[nH]c4=O)cc3c2)CC1` [Example 15, 5-[5-(4-Methyl-piperazine-1-carbonyl)-1H-indol-2-yl]-6-oxo-1,6-dihydro-pyridine-3-carboxylic acid (1-benzyl-1H-pyrazol-4-yl)-amide], for which the IC50 was below 100 nM. In the case of `O=C(Nc1cnn(Cc2ccccc2)c1)c1c[nH]c(=O)c(-c2cc3cc(CN4CCNCC4)ccc3[nH]2)c1` [Example 16, 6-oxo-5-(5-piperazin-1-ylmethyl-1H-indol-2-yl)-1,6-dihydro-pyridine-3-carboxylic acid (1-benzyl-1H-pyrazol-4-yl)-amide] it was below 100 nM; in that of `Cc1[nH]c(=O)c(-c2cc3ccccc3[nH]2)cc1C(=O)Nc1cnn(Cc2ccccc2)c1` [Example 17, 5-(1H-Indol-2-yl)-2-methyl-6-oxo-1,6-dihydro-pyridine-3-carboxylic acid (1-benzyl-1H-pyrazol-4-yl)-amide], 500 to 1500 nM; in that of `Cc1[nH]c(=O)c(-c2cc3ccccc3[nH]2)cc1C(=O)Nc1cnn(Cc2cccc(F)c2)c1` [Example 18, 5-(1H-Indol-2-yl)-2-methyl-6-oxo-1,6-dihydro-pyridine-3-carboxylic acid [1-(3-fluoro-benzyl)-1H-pyrazol-4-yl]-amide], 500 to 1500 nM.

Take `Cc1[nH]c(=O)c(-c2cc3ccccc3[nH]2)cc1C(=O)Nc1cnn(Cc2ccc(F)c(F)c2)c1` [Example 19, 5-(1H-Indol-2-yl)-2-methyl-6-oxo-1,6-dihydro-pyridine-3-carboxylic acid [1-(3,4-difluoro-benzyl)-1H-pyrazol-4-yl]-amide]: the IC50 lay within 100 to 500 nM. With `O=C(Nc1c[nH]c(=O)c(-c2cc3ccccc3[nH]2)c1)c1cnn(Cc2ccc(F)cc2)c1` [Example 21, 1-(4-Fluoro-benzyl)-1H-pyrazole-4-carboxylic acid [5-(1H-indol-2-yl)-6-oxo-1,6-dihydro-pyridin-3-yl]-amide], the IC50 was below 100 nM. On to `O=C(Nc1c[nH]c(=O)c(-c2cc3ccccc3[nH]2)c1)c1cnn(Cc2cccc(F)c2)c1` [Example 22, 1-(3-Fluoro-benzyl)-1H-pyrazole-4-carboxylic acid [5-(1H-indol-2-yl)-6-oxo-1,6-dihydro-pyridin-3-yl]-amide], for which the IC50 was below 100 nM. Under `O=C(Nc1c[nH]c(=O)c(-c2cc3ccccc3[nH]2)c1)c1cnn(Cc2cccc(C(F)(F)F)c2)c1` [Example 23, 1-(3-Trifluoromethyl-benzyl)-1H-pyrazole-4-carboxylic acid [5-(1H-indol-2-yl)-6-oxo-1,6-dihydro-pyridin-3-yl]-amide] stands below 100 nM.

In the case of `O=C(Nc1c[nH]c(=O)c(-c2cc3ccccc3[nH]2)c1)c1cnn(Cc2ccc(F)c(F)c2)c1` [Example 24, 1-(3,4-Difluoro-benzyl)-1H-pyrazole-4-carboxylic acid [5-(1H-indol-2-yl)-6-oxo-1,6-dihydro-pyridin-3-yl]-amide], the IC50 is below 100 nM.

Source of the values: patent US9604975B2, “Indolyl-pyridone derivatives having checkpoint kinase 1 inhibitory activity” (Vernalis (R&D) Ltd., priority 2009, dated 2017).
